Several values for one entry are separate records, joined by “and”; a condition that tells them apart may be missing. Equal entries are not always repeated.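 Five compound concentrations were applied to cells in 96-well plates for 48 hours; endpoints were derived by simple linear interpolation of the resulting dose-response curve. GI50: concentration for 50% inhibition of growth. TGI marks complete inhibition of growth.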
Assays:
Assay in all cases: growth of human tumour cells (NCI), 48 h
[1] = tested on: SNB-75 CNS
[2] = tested on: SF-268 CNS
[3] = tested on: U251 CNS
[4] = tested on: SNB-19 CNS
[5] = tested on: UO-31 renal
[6] = tested on: IGROV1 ovarian
[7] = tested on: HCT-15 colon
[8] = tested on: A498 renal
[9] = tested on: T-47D breast
[10] = tested on: NCI-H226 lung

Structure (SMILES)	GI50 [1]	TGI [1] [µM]	GI50 [2] [µM]	TGI [2]	GI50 [3] [µM]	TGI [3] [µM]	GI50 [4] [µM]	TGI [4]	GI50 [5] [µM]	TGI [5]	GI50 [6] [µM]	TGI [6]	GI50 [7] [µM]	TGI [7] [µM]	GI50 [8] [µM]	TGI [8] [µM]	GI50 [9] [µM]	TGI [9] [µM]	GI50 [10] [µM]	TGI [10]
C1CC[N-]CC1.CC(=N\O)/C(C)=N/O.CC(=N\O)/C(C)=N/O.C[CH-]C(C)O.[Co+2]	19.5 µM	71.4	29.4	95 µM	17.7	31.5	49.6	> 100 µM	42.9	> 100 µM	31.7	> 100 µM	30	> 100	23.9	73.9	12.6	41.1	26.2	69 µM
Cc1c2ccccc2c(C)n2c1nc1cc(Cl)c(Cl)cc12	36.9 µM	> 100	> 100	> 100 µM	34.6	> 100	> 100	> 100 µM	8.14	> 100 µM	8.62	> 100 µM	93.5	> 100	> 100	> 100	3.95	> 100	> 100	> 100 µM
C=C1C(=O)OC2(C)CCC1CC1OC1(C)CCC=C(C)CCC2O (stereo not drawn)	–	> 100	–	> 100 µM	–	> 100	–	> 100 µM	–	> 100 µM	–	> 100 µM	–	> 100	–	> 100	–	> 100	–	> 100 µM
Cc1nc2sc(C(=O)Nc3ccccc3)c(N)c2cc1C(=O)c1ccccc1	1.87 µM	> 50	3.5	> 50 µM	2.09	> 50	2	> 50 µM	3.58	> 50 µM	4.11	> 50 µM	2.19	> 50	0.216	3.72	2.94	> 50	16.9	> 50 µM
CNc1nc(-c2ccc3c(N)n[nH]c3c2)cc(N2C[C@@H](C(=O)NC3CCCCC3)CC[C@H]2C)n1	0.457 µM	7.23	2.98	19 µM	3.88	17.9	4.42	18 µM	0.854	13.7 µM	2.45	14.9 µM	4.33	19.4	0.301	3.02	0.13	5.3	6.74	22.7 µM
COc1cc2c(=O)n(CC3CCCCC3)c3c4cc[nH]c4ncc3c2cc1OC	0.209 µM	1.9	1.4	13.9 µM	4.85	15.7	5.16	19.5 µM	0.848	9.56 µM	0.891	13.8 µM	1.69	> 50	0.086	3.06	3.66	> 50	0.0556	17.2 µM
COc1ccc(C2C3=C(COC3=O)N(CCO)c3cc4c(cc32)CCC4)cc1 (stereo not drawn)	1.46 µM	13.7	7.05	> 50 µM	3.16	> 50	7.48	> 50 µM	5.86	> 50 µM	2.15	18.4 µM	6.04	> 50	2.36	> 50	3.87	> 50	21.4	> 50 µM
NC1=C(O)C(=O)C(c2c[nH]c3ccc(OCc4ccccc4)cc23)O1 (stereo not drawn)	–	> 91.3	–	> 100 µM	–	> 100	–	> 100 µM	–	> 100 µM	–	> 100 µM	–	> 100	–	> 100	–	> 100	–	> 100 µM
COc1ccc(/C=C2/CSC/C(=C/c3ccc(OC)c(OC)c3)C2=O)cc1OC	–	> 100	–	18.4 µM	–	2.72	–	16.2 µM	–	10.6 µM	–	5.99 µM	–	3.46	–	15.3	–	4.94	–	7.15 µM
Cn1cccc1-c1cc(-c2ccccc2)nc(N)c1C#N	> 43 µM	> 87.9	> 100	> 100 µM	> 100	> 100	> 89.5	> 100 µM	> 100	> 100 µM	> 100	> 100 µM	> 100	> 100	36.8	> 100	> 100	> 100	> 46.4	> 100 µM
Nc1ccn(C2CC3OCC3O2)c(=O)n1 (stereo not drawn)	–	> 100	–	> 100 µM	–	> 100	–	> 100 µM	–	> 100 µM	–	> 100 µM	–	> 100	–	> 100	–	> 100	–	> 100 µM
O=S(=O)(Nc1ccc(Cl)c(Cl)c1)c1ccc(-c2cnc(C3CC3)o2)cc1	0.138 µM	0.558	1.26	23.8 µM	0.607	16.3	0.534	17.1 µM	0.498	15.9 µM	0.587	15.8 µM	0.405	15.7	0.273	2.9	0.349	18.6	1.82	19.5 µM
CS(=O)(=O)CCNCc1ccoc1-c1ccc2ncnc(Nc3ccc(OCc4ccccc4)cc3)c2c1	> 7.41 µM	> 25	> 25	> 25 µM	> 25	> 25	> 25	> 25 µM	2.26	> 25 µM	> 17	> 25 µM	> 25	> 25	20.5	> 25	7.86	> 25	> 25	> 25 µM
O=C(N/N=C/c1ccc(N(CCCl)CCCl)cc1)c1ccc(C(=O)N/N=C/c2ccc(N(CCCl)CCCl)cc2)cc1	6.74 µM	> 100	0.284	27.8 µM	0.346	17.1	38.6	> 100 µM	> 100	> 100 µM	20.7	> 100 µM	> 100	> 100	15.1	> 100	5.54	> 100	57.4	> 100 µM
CCC(C)N1CN(c2ccccc2)C2(CCN(CCCC3(c4ccc(F)cc4)OCCO3)CC2)C1=O (stereo not drawn)	–	19.8	–	48.5 µM	–	10.9	–	34.6 µM	–	10.7 µM	–	30.7 µM	–	10.8	–	37	–	42.5	–	32.7 µM
CC(=O)OC1=C(CC(C)(C)C)C(=O)c2ccccc2C1=O	–	> 100	–	74.9 µM	–	> 100	–	> 100 µM	–	> 100 µM	–	> 100 µM	–	> 100	–	48.3	–	> 100	–	> 100 µM
N=C1C=C(N)C(=O)c2ccccc21	0.151 µM	0.293	0.199	0.451 µM	0.183	0.339	0.598	1.97 µM	0.153	0.32 µM	0.203	0.42 µM	0.225	0.578	1.57	2.95	0.261	0.671	0.19	0.394 µM
CC[C@@H](C(=O)[C@@H](C)[C@@H](O)[C@H](C)[C@@H]1O[C@@H]([C@@H](CC)C(=O)O)CC[C@@H]1C)[C@H]1O[C@]2(C=C[C@@H](O)[C@]3(CC[C@@](C)([C@H]4CC[C@](O)(CC)[C@H](C)O4)O3)O2)[C@H](C)C[C@@H]1C	1.05 µM	4.31	1.93	24.8 µM	0.149	8.91	0.689	5.97 µM	1.05	25.5 µM	2.05	> 84.7 µM	0.912	> 100	0.0567	0.821	0.383	16.7	2.07	19.6 µM
CCOc1ccccc1N=Cc1c2ccccc2cc2ccccc12	–	47.7	–	54.5 µM	–	> 63.9	–	> 88.4 µM	–	43.6 µM	–	49.9 µM	–	> 83.5	–	> 72.4	–	64.1	–	> 100 µM
O=C1CC2OCC=C3CN4CCC5(C(=O)O)C(N1)C2C3CC45 (stereo not drawn)	–	> 100	–	> 100 µM	–	> 100	–	> 100 µM	–	> 100 µM	–	> 100 µM	–	> 100	–	> 100	–	> 100	–	> 100 µM
CCCCCCCCc1cc(O)ccc1O	13.3 µM	47.3	14.1	31.3 µM	18.5	40.6	18.5	39.9 µM	15	28.3 µM	17.7	43.8 µM	16.4	38	15.3	36	14.2	37.6	17.3	41.7 µM
COC(=O)Nc1nc2ccc(C(=O)c3cccs3)cc2[nH]1	< 0.0192 µM and 0.171 µM	> 100	0.452	60.7 µM and > 100 µM	0.147	–	0.359	42.5 µM and > 100 µM	3.23	38.2 µM and > 100 µM	0.594	36.5 µM and > 100 µM	0.106	–	0.203	1.58	> 100	> 100	0.275	1.26 µM and 2.54 µM
C[C@@H]1Cc2c(ccc3[nH]ncc23)[C@@H](c2ccc(NC3CN(CCCF)C3)cn2)N1CC(F)(F)F	12.7 µM	> 100	22.3	79.4 µM	15.8	36.7	28.3	> 100 µM	12.6	26.8 µM	20.2	62.4 µM	16.7	35	15.6	36.6	< 0.01	23.2	39	> 100 µM
CCN(CC)CCNc1ccc([N+](=O)[O-])c2nc3ccc(OC)cc3c(N)c12	–	3.64	–	3.63 µM	–	3.06	–	3.29 µM	–	3.13 µM	–	1.21 µM	–	2.68	–	3.08	–	3.16	–	4.41 µM
CCOC(=O)N(O)c1ccc(/C=C/c2ccccc2)cc1	29.3 µM	> 100	18.2	> 100 µM	4.72	29.2	18.5	> 100 µM	6.03	36.4 µM	0.319	3.21 µM	9.18	37.4	0.146	0.291	0.452	8.81	0.128	0.446 µM
C=C(CN1CCN(c2ccc(F)c(Cl)c2)CC1)c1ccc(C(=O)Nc2ccccc2N)cc1	> 100 µM	> 100	4.35	> 100 µM	4.42	23.7	> 100	> 100 µM	2.28	12.1 µM	1.88	7.86 µM	5.38	> 100	9.67	44.1	> 100	> 100	9.12	55.3 µM
